From PMC3252867, “Marilones A–C, phthalides from the sponge-derived fungus Stachylidium sp” (Beilstein Journal of Organic Chemistry, 2011)
Read-outs that look alike come from different tables or passages of the source.

Tests used:
Assay in all cases: cells
Parameters in all cases: antiproliferative activity in human cancer cell lines, growth inhibition corrected for starting population (GI50)
Settings in all cases: Homo sapiens
SF268 = system: SF268
MCF7 = system: MCF7
NCI-H460 = system: NCI-H460

COc1c(C)c(OC/C=C(\C)CCC=C(C)C)cc2c1C(=O)O[C@H]2C (racemic) [compound 1, Marilone A]
GI50 (SF268; SF-268, read-out: GI50 (1)): 38.4 µM | GI50 (MCF7; MCF7, read-out: GI50 (1)): 28.8 µM | GI50 (NCI-H460; NCI-H460, read-out: GI50 (1)): 42.9 µM

COc1cc([C@@H]2c3cc4c(cc3[C@@H](O[C@@H]3O[C@@H]5CO[C@@H](C)O[C@H]5[C@H](O)[C@H]3O)[C@H]3COC(=O)[C@H]23)OCO4)cc(OC)c1O [Etoposide]
GI50 (SF268; SF-268, read-out: GI50 Etoposide): 7.7 µM | GI50 (MCF7; MCF7, read-out: GI50 Etoposide): 22.8 µM | GI50 (NCI-H460; NCI-H460, read-out: GI50 Etoposide): 0.4 µM

COc1c(C)c(OC/C=C(\C)CCC=C(C)C)cc2c1COC2=O [compound 3, Marilone C]
GI50 (SF268; SF-268, read-out: GI50 (3)): 28.9 µM | GI50 (MCF7; MCF7, read-out: GI50 (3)): 20 µM | GI50 (NCI-H460; NCI-H460, read-out: GI50 (3)): 31 µM
